Test results reported in US11471442B2, “Administration of gut-selective JAK3 inhibitor” (THERAVANCE BIOPHARMA R&D IP, LLC, priority 2020, dated 2022).
Read-outs that look alike come from different tables or passages of the source.

Columns and labels:
NK cells = test: NK cell counts (immunophenotyping) in MAD cohorts; type: in vivo, human; conditions: day 1 to day 10, MAD
Method: Immunophenotyping was conducted on NK Cells in part B only.

Caco-2 permeation assay = type: in vitro ADME; conditions: human, read-out: Kp (permeability)
[1] = Phase 1 MAD (Part B) plasma pharmacokinetics in healthy subjects; type: in vivo, human; conditions: for half-life: read-out: t1/2, mean (SD) (converted); for AUC: part B (MAD), 100 to 1000 mg BID
Method: The plasma PK parameters of the compound of formula (I) calculated following single (Part A) or multiple (Parts B) oral doses.
In each cohort, healthy subjects meeting eligibility criteria were sequentially randomized in a 3:1 ratio to receive either the compound of formula (I) or placebo BID, each morning and evening (approximately 12 hours following the morning dose) for 10 consecutive days of dosing, except for Day 10 where subjects were only received a morning dose. Subjects were dosed in an upright (i.e., seated or standing) position and remained upright for 5 minutes after dosing before a posture change for other study procedures, if applicable. Subjects fasted overnight for at least 9.5 hours prior to morning dose on Day 1 and Day 10. Subjects continued the fast for at least 4 hours post morning dose on these days. For all other morning doses and for all evening doses (i.e., Day 1 evening and Days 2 to 9), subjects were required to fast for at least 2 hours prior and for at least 2 hours following the dose.
PK sampling for the compound of formula (I) in plasma was taken Day 1 pre-morning dose and for 12 hours post-dose and Day 10 pre-morning dose and for 72 hours post Day 10 dose. Additional pre morning dose samples were taken on Days 2, 4, 6, and 8.
For all subjects, blood samples for the determination of plasma concentration of the compound of formula (I) were collected at scheduled time points. Blood samples were analyzed to calculate different plasma PK parameters in both part A and part B.
For all PK data analyses, the PK analysis set was used. Individual subject and mean plasma drug concentration versus time curves for the compound of formula (I) were presented for each dose group. Summary statistics (mean, standard deviation, coefficient of variation, median, minimum, maximum, geometric mean, geometric coefficient of variation, number of subjects) were calculated for plasma concentrations at each time point for each dose group, and the PK parameters for each dose group. Urine PK parameters were summarized for exploratory purposes.

JAK3 = molecular target: T1, JAK3 (Homo sapiens, UniProt P52333); test: Co-crystal structure with human JAK3; type: binding
T1 sequence (P52333 1-1124): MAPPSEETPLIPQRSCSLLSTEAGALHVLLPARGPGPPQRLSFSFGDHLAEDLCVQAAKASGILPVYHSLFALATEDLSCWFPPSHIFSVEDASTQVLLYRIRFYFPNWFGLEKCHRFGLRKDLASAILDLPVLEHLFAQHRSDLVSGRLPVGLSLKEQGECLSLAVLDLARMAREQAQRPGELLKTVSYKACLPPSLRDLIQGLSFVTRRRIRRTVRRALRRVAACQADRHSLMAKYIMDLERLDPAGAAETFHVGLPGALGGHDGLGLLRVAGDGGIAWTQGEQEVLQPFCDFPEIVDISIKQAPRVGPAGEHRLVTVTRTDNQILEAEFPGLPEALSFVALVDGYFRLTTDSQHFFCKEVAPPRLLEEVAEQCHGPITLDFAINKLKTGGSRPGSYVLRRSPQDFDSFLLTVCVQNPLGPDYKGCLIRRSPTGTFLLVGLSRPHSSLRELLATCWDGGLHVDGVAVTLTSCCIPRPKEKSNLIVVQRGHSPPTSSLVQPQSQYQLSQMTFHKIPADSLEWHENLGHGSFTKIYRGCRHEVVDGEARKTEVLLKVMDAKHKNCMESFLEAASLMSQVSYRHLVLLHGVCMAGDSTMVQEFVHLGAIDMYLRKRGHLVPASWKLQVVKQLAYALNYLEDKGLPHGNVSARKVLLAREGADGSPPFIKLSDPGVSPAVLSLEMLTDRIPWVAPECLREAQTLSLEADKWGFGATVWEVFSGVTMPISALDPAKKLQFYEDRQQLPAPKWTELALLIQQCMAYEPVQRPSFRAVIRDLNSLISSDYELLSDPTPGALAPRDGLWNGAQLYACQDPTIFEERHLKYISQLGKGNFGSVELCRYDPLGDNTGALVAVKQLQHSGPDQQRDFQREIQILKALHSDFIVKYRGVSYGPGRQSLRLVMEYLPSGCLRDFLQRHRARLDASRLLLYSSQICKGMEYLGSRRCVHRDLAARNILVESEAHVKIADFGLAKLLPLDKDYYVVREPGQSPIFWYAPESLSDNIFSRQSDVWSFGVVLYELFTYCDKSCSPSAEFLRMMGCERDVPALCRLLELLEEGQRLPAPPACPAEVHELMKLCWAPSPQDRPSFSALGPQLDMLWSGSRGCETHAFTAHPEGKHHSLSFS
Source text: Such covalent binding to JAK3 could be beneficial by providing an extended target engagement which may translate in better efficacy.

IL-2 induced pSTAT5 = test: Murine model of IL-2 induced pSTAT5 induction in the thymus; type: in vivo
[2] = plasma, Day 1, 100 mg BID, n = 6
[3] = plasma, Day 1, 300 mg BID, n = 6
[4] = plasma, Day 1, 1000 mg BID, n = 6
[5] = plasma, Day 10, 100 mg BID, n = 6
[6] = plasma, Day 10, 300 mg BID, n = 6

With `CN(C)C/C=C/C(=O)N1CC(COc2cc(-c3ccc(O)cc3)cc3[nH]ncc23)C1` [compound of formula (I)] the “changes in absolute or relative NK cell counts” value (NK cells) was “no apparent changes”, the Papp (Caco-2 permeation assay) was less than 5 ×10⁻⁶ cm/s and the “time to steady state” value ([1]; 100 mg BID) was 7 days. The “Accumulation ratio (AUC0-12,ss/AUC0-12), Geometric mean (CV %)” value (shortened to “Accumulation ratio … (CV %)”) ([1]; 100 mg BID, n = 6) was 2.5 (35.2), the “Accumulation ratio (AUC0-12,ss/AUC0-12), Mean (SD)” value (shortened to “Accumulation ratio … (SD)”) ([1]; 100 mg BID, n = 6) was 2.6 (0.78) and the “time to steady state” value ([1]; 300 mg BID) was 3 days. For the same compound, the “Accumulation ratio … (CV %)” value ([1]; 300 mg BID, n = 6) was 2.3 (51.9), the “Accumulation ratio … (SD)” value ([1]; 300 mg BID, n = 6) was 2.5 (1.1) and the “fold mean Cmax,ss below the protein-adjusted JAK3 IC50” value ([1]; 1000 mg BID) was “approximately 11 fold”. The “time to steady state” value ([1]; 1000 mg BID) was 3 days, the “Accumulation ratio … (CV %)” value ([1]; 1000 mg BID, n = 6) was 2.3 (92.5) and the “Accumulation ratio … (SD)” value ([1]; 1000 mg BID, n = 6) was 2.9 (1.7). The “dose proportionality of exposure (AUC and Cmax)” value ([1]; after multiple-dose administration) was “dose proportionally”, the Tmax ([1]; both sexes, human, oral, plasma, Day 10 (morning dose), 100 mg BID, n = 6, read-out: Tmax,ss, median (min, max)) was 2 h and the half-life ([1]; both sexes, human, oral, plasma, Day 10 (morning dose), 100 mg BID, n = 6) was 19.8 h. The Tmax ([1]; both sexes, human, oral, plasma, Day 10 (morning dose), 300 mg BID, n = 6, read-out: Tmax,ss, median (min, max)) was 1 h, the half-life ([1]; both sexes, human, oral, plasma, Day 10 (morning dose), 300 mg BID, n = 6) was 19.2 h and the Tmax ([1]; both sexes, human, oral, plasma, Day 10 (morning dose), 1000 mg BID, n = 6, read-out: Tmax,ss, median (min, max)) was 1 h. It also gave a half-life ([1]; both sexes, human, oral, plasma, Day 10 (morning dose), 1000 mg BID, n = 6) of 18.5 h, an AUC(0-t) ([1]; both sexes, human, plasma, oral, 100 mg, plasma, Day 1 (morning dose), 100 mg BID, n = 6, read-out: AUC0-12, mean (SD)) of 3.5 ng·h/mL and an AUC(0-t) ([1]; both sexes, human, plasma, oral, 100 mg, plasma, Day 10 (morning dose), 100 mg BID, n = 6, read-out: AUC0-12,ss, mean (SD)) of 8.9 ng·h/mL. It also gave a Cmax ([1]; both sexes, human, plasma, oral, 100 mg, plasma, Day 10 (morning dose), 100 mg BID, n = 6, read-out: Cmax,ss, mean (SD)) of 1.7 ng/mL, an AUC(0-t) ([1]; both sexes, human, plasma, oral, 300 mg, plasma, Day 1 (morning dose), 300 mg BID, n = 6, read-out: AUC0-12, mean (SD)) of 8.5 ng·h/mL and an AUC(0-t) ([1]; both sexes, human, plasma, oral, 300 mg, plasma, Day 10 (morning dose), 300 mg BID, n = 6, read-out: AUC0-12,ss, mean (SD)) of 16.9 ng·h/mL. It also gave a Cmax ([1]; both sexes, human, plasma, oral, 300 mg, plasma, Day 10 (morning dose), 300 mg BID, n = 6, read-out: Cmax,ss, mean (SD)) of 3.5 ng/mL, an AUC(0-t) ([1]; both sexes, human, plasma, oral, 1000 mg, plasma, Day 1 (morning dose), 1000 mg BID, n = 6, read-out: AUC0-12, mean (SD)) of 37.4 ng·h/mL and an AUC(0-t) ([1]; both sexes, human, plasma, oral, 1000 mg, plasma, Day 10 (morning dose), 1000 mg BID, n = 6, read-out: AUC0-12,ss, mean (SD)) of 62.1 ng·h/mL. The Cmax ([1]; both sexes, human, plasma, oral, 1000 mg, plasma, Day 10 (morning dose), 1000 mg BID, n = 6, read-out: Cmax,ss, mean (SD)) was 13.3 ng/mL, the Tmax ([1]; human, oral, plasma, Day 1 (morning dose), 100 mg BID, n = 6, read-out: Tmax, median (min, max)) was 1.5 h and the Tmax ([1]; human, oral, plasma, Day 1 (morning dose), 300 mg BID, n = 6, read-out: Tmax, median (min, max)) was 1 h. The Tmax ([1]; human, oral, plasma, Day 1 (morning dose), 1000 mg BID, n = 6, read-out: Tmax, median (min, max)) was 1.5 h, the Cmax ([1]; human, plasma, oral, 100 mg, plasma, Day 1 (morning dose), 100 mg BID, n = 6, read-out: Cmax, mean (SD)) was 0.78 ng/mL and the Cmax ([1]; human, plasma, oral, 300 mg, plasma, Day 1 (morning dose), 300 mg BID, n = 6, read-out: Cmax, mean (SD)) was 2.6 ng/mL. It also gave a Cmax ([1]; human, plasma, oral, 1000 mg, highest tested dose (1000 mg BID), read-out: mean Cmax,ss (maximum observed concentration at steady-state)) of 13 ng/mL, a Cmax ([1]; human, plasma, oral, 1000 mg, plasma, Day 1 (morning dose), 1000 mg BID, n = 6, read-out: Cmax, mean (SD)) of 10.7 ng/mL and an AUC ([1]; human, plasma, oral, read-out: AUCss0-12 in the plasma of the subjects (range)) of 5.43 to 88.5 ng·h/mL. For the same compound, the AUC ([1]; human, plasma, oral, read-out: average AUCss0-12) was 8.94 to 62.1 ng·h/mL, the concentration at 10 days ([1]; human, plasma, oral, multiple doses up to 1000 mg BID, read-out: Plasma concentrations) was less than 35 ng/mL and the “Dose normalized AUC0-12/D, mean (SD)” value [1, 2] was 0.035 (0.012) ng*hr/mL/mg. For the same compound, the “Dose normalized Cmax/D, mean (SD)” value [1, 2] was 0.0078 (0.0033) ng/mL/mg, the “Dose normalized AUC0-12/D, mean (SD)” value [1, 3] was 0.028 (0.016) ng*hr/mL/mg and the “Dose normalized Cmax/D, mean (SD)” value [1, 3] was 0.0086 (0.0079) ng/mL/mg. For the same compound, the “Dose normalized AUC0-12/D, mean (SD)” value [1, 4] was 0.037 (0.039) ng*hr/mL/mg, the “Dose normalized Cmax/D, mean (SD)” value [1, 4] was 0.011 (0.013) ng/mL/mg and the “Dose normalized AUC0-12,ss/D, mean (SD)” value [1, 5] was 0.089 (0.036) ng*hr/mL/mg. The “Dose normalized Cmax,ss/D, mean (SD)” value [1, 5] was 0.017 (0.0080) ng/mL/mg, the “Dose normalized AUC0-12,ss/D, mean (SD)” value [1, 6] was 0.056 (0.012) ng*hr/mL/mg and the “Dose normalized Cmax,ss/D, mean (SD)” value [1, 6] was 0.012 (0.0045) ng/mL/mg. For the same compound, the “Dose normalized Cmax,ss/D, mean (SD)” value ([1]; plasma, Day 10, 1000 mg BID, n = 6) was 0.013 (0.0084) ng/mL/mg, the “binding nature to JAK3 (co-crystal structure, covalent bond with Cys909)” value (JAK3) was “irreversible binding” and the “systemic activity (IL-2 induced pSTAT5 induction in the thymus)” value (IL-2 induced pSTAT5) was “lack of systemic activity”.
